Columns and labels:
H9 = assay: Cytotoxicity, cell viability; conditions: Homo sapiens; H9, 72 hours of incubation, ATP-based method
Method: (§1) The anti-tumor activity of the compounds of the present invention was evaluated as the effect on the proliferation and survival of tumor cells by counting the number of living cells in presence or absence of the compounds ("cell count method"), and as the effect on the viability and metabolic activity of the cells, by using particular substrates that are converted by cellular enzymes into coloured or luminescent products, proportionally with metabolic activity and state of the cell, such as the MTS tetrazolium compound ("MTS method") or luciferin ("ATP-based method") respectively.
Cells were seeded at 3 to 5 x 10^4 cells/well density depending on cell lines and maintained at 37°C in 5% CO2. After 24 hours cells were treated with ascending concentrations of the investigational compounds and the reference (5-fluoro-Uracyl) in a range from 0 to 100 µM. […] After 72 h of incubation with compounds, the cells were detached with trypsin and re-suspended in 1 ml of complete medium; the cell number was evaluated using a Z2 Coulter Counter ("cell count method") (Attallah and Johnson, A simple highly sensitive methods for the determination of cell viability using an electronic particle analyzer, Coulter counter J. Immunol. Methods. 1981, 41, 155; Leonardi et al., Activated kinase screening identifies the IKBKE oncogene as a positive regulator of autophagy. Autophagy, 2019, 15, 312). […]

CYP2C9 = target: T1, CYP2C9 (Homo sapiens, UniProt P11712); assay: Cytochrome P450 inhibition; format: in vitro ADME; conditions: 2C9, Human Liver Microsome
T1 construct: 158 µl of Human Liver Microsome working stock solution; from tissue; host or cells: human liver microsomes
T1 sequence (P11712 whole entry): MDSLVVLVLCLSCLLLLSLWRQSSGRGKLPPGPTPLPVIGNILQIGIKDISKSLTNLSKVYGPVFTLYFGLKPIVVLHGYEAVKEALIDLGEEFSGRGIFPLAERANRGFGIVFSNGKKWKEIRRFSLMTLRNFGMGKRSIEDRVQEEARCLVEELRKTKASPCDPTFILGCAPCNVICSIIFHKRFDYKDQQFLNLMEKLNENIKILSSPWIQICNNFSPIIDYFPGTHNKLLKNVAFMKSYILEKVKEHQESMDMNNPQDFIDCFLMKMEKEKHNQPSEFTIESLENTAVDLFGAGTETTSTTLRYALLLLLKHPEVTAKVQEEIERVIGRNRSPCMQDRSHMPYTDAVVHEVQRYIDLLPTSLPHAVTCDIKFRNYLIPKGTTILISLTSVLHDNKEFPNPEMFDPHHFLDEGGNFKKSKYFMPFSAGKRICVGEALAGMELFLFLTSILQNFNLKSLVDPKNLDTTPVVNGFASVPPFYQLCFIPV
Method: (§2) Ready to use PBS, 9.07-10.00 g, (Sigma Aldrich, catalogue code P3813) was dissolved in […] MilliQ water and pH was adjusted to 7.4.
(§3) Substrate pool was done pooling 14 µl of Phenacitin 10 mM (CYP1A2 substrate, Sigma Aldrich, catalogue number 7740), 14 µl Diclofenac 10 mM (CYP2C9 substrate, Sigma Aldrich, catalogue number D6899), 14 µl Dextromethorphan 10 mM (CYP2D6 substrate, Sigma Aldrich, catalogue number D9684), 20.28 µl Midazolam 2.76 mM (CYP3A4 substrate, Sigma Aldrich, catalogue number UC430) and 14 µl Bupropion HCl 10 mM (CYP2B6 substrate, Sigma Aldrich, catalogue number B102), and diluted to 2800 µl with PBS buffer pH 7.4.
(§4) Inhibitors of the cytochromes tested were the following: Alpha-naphthoflavone (CYP1A2, Sigma Aldrich, catalogue number N5757); Sulfaphenazole (CYP2C9, Sigma Aldrich, catalogue number S0758); Ticlopidine (CYP2B6, Sigma Aldrich, catalogue number T6654); Quinidine (CYP2D6, Sigma Aldrich, catalogue number Q3625); Ketoconazole (CYP3A4, Sigma Aldrich, catalogue number K1003).
(§5) 158 µl of Human Liver Microsome working stock solution in PBS buffer pH7.4 was added to reaction plate (0.253 mg/ml, 158 µl/well).
(§6) Test compounds and inhibitors were prepared in DMSO and diluted with buffer to prepare working solution with the final concentration of 3000, 999, 333, 111, 37 and 12 µM. 2 µl of working solution of the test compounds or inhibitors listed above were added to reaction plate (2 µl/ well). For control, 2 µl of Acetonitrile containing DMSO (without inhibitor) was added to reaction plate. 20 µl of substrate pool was added to all the wells of the reaction plate. The samples were mixed using the vortex and pre-incubated at 37°C for 5 min.
(§7) The NADPH solution 10 mM in PBS buffer pH 7.4 was pre-warmed at 37°C for 5 min. 20 µl of pre-warmed NADPH solution was added to the reaction plate and then incubated at 37°C for 10 min.
(§8) The reaction was terminated by adding cold ACN (200 µl/well) to the reaction mixture and centrifuged at 4,000 rpm for 20 minutes.
(§9) After centrifugation, 200 µl of supernatant was submitted for LC-MS/MS analysis. Mobile phases include 0.1% formic acid in water and methanol:acetonitrile, 50% (v/v).
(§10) Column is Phenomenex kinetic C18, 50 x 4.6 mm, […]. IC50 values were calculated using Graphpad Prism (version 4.03).

CYP3A4 = target: T2, CYP3A4 (Homo sapiens, UniProt P08684); assay: Cytochrome P450 inhibition; format: in vitro ADME; conditions: 3A4, Human Liver Microsome
T2 construct: 158 µl of Human Liver Microsome working stock solution; from tissue; host or cells: human liver microsomes
T2 sequence (P08684 whole entry): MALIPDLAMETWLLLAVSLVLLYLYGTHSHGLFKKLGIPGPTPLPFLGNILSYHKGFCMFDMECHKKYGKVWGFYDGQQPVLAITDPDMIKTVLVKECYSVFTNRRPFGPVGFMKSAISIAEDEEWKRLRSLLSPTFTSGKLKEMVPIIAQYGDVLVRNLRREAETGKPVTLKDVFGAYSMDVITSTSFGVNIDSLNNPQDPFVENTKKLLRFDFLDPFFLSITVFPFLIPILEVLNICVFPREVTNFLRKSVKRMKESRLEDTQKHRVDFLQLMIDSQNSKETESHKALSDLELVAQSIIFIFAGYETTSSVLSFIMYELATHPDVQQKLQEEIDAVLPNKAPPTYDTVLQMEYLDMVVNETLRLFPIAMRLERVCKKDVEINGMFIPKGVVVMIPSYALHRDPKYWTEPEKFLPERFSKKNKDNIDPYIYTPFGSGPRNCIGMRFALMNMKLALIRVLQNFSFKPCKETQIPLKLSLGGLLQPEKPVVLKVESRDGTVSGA
Method: as §2, §3, §4, §5, §6, §7, §8, §9, §10

CYP2D6 = target: T3, CYP2D6 (Homo sapiens, UniProt P10635); assay: Cytochrome P450 inhibition; format: in vitro ADME; conditions: 2D6, Human Liver Microsome
T3 construct: 158 µl of Human Liver Microsome working stock solution; from tissue; host or cells: human liver microsomes
T3 sequence (P10635 whole entry): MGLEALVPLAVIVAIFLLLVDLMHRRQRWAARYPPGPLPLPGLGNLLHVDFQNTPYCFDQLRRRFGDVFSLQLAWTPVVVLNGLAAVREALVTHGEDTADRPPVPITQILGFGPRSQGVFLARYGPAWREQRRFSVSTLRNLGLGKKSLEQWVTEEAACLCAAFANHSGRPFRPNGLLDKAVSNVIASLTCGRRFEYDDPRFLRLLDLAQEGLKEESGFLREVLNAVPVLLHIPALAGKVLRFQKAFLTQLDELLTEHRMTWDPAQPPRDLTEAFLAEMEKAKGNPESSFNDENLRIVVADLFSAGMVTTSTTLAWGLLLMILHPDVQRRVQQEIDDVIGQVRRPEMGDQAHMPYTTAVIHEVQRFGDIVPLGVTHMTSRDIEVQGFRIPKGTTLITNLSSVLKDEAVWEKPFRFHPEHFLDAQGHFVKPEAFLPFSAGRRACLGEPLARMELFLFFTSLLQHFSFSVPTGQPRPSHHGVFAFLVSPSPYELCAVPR
Method: as §2, §3, §4, §5, §6, §7, §8, §9, §10

CYP1A2 = target: T4, CYP1A2 (Homo sapiens, UniProt P05177); assay: Cytochrome P450 inhibition; format: in vitro ADME; conditions: 1A2, Human Liver Microsome
T4 construct: 158 µl of Human Liver Microsome working stock solution; from tissue; host or cells: human liver microsomes
T4 sequence (P05177 whole entry): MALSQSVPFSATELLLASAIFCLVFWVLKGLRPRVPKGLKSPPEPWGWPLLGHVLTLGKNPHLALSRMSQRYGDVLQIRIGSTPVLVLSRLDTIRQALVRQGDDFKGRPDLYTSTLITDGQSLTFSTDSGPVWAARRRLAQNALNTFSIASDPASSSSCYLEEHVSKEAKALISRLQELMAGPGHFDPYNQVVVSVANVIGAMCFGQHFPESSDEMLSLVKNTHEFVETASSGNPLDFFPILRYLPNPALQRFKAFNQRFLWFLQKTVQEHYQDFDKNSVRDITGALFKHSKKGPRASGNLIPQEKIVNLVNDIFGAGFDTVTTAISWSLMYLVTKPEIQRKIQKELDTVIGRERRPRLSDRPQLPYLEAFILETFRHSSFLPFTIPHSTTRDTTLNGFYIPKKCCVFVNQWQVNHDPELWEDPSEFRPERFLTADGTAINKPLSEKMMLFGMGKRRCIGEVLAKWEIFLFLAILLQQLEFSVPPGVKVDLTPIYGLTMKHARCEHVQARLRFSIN
Method: as §2, §3, §4, §5, §6, §7, §8, §9, §10

MDAMB231 cell line = assay: Cytotoxicity, cell count method; format: cell-based, human; conditions: Homo sapiens, MDA-MB-231, MDAMB231, 72 hours of incubation
Method: as §1
Cells were seeded at 3 to 5 x 10^4 cells/well density depending on cell lines and maintained at 37°C in 5% CO2. After 24 hours cells were treated with ascending concentrations of the investigational compounds and the reference (5-fluoro-Uracyl) in a range from 0 to 100 µM. Compounds were dissolved in DMSO which final concentration in each well was 0.5% v:v. After 72 h of incubation with compounds, the cells were detached with trypsin and re-suspended in 1 ml of complete medium; the cell number was evaluated using a Z2 Coulter Counter ("cell count method") (Attallah and Johnson, A simple highly sensitive methods for the determination of cell viability using an electronic particle analyzer, Coulter counter J. Immunol. Methods. 1981, 41, 155; Leonardi et al., Activated kinase screening identifies the IKBKE oncogene as a positive regulator of autophagy. Autophagy, 2019, 15, 312). Alternatively, after the 72 hours of incubation with compounds, the MTS solution (CellTiter 96® AQueous One Solution Cell Proliferation Assay) is added to each well and absorbance at 490 nm wavelength is read after 2 hours of incubation ("MTS method"). Results in Tables 8-13, 17, 18 were obtained with the cell count method. Results in Tables 14-15 were obtained with the MTS method. Results in Table 16 were obtained with ATP-based method.

[1] = Dose estimation by allometric relationship (PAD, HED); conditions: mouse models
From the text: Based on pharmacokinetic studies and efficacy in vivo, it is possible to estimate a dosage in humans by allometric relationship (USFDA. Guidance for Industry: Estimating the Maximum Safe Starting Dose in Adult Healthy Volunteer. Rockville, MD: US Food and Drug Administration; 2005). […] The human equivalent dose (HED) can be estimated according with the FDA guidelines by means of the following formula: HED = animal dose × (((animal weight)/(human weight)))^((1−0.67)) [formula]
Based on PAD in mouse models, the HED can be estimated as 1.8 mg/(Kg·day) considering a mouse average weight of 30 g and an adult human body weight of 60 Kg.

Compound: CCCCc1cn(-c2ccc(-c3nnc(-c4ccccc4C(F)(F)F)o3)cc2)nn1 [Compound 5]
- IC50 (H9): 50 µM
- IC50 (CYP2C9): > 30 µM
- IC50 (CYP3A4): > 30 µM
- IC50 (CYP2D6): > 30 µM
- IC50 (CYP1A2): > 30 µM
- IC50 (MDAMB231 cell line): 0.58 µM
- pharmacologically active dose (PAD) [1]: 22.5 mg·kg-1·day-1
